What all share (assay): NCI anticancer screen, dose series, 48 h
The subject of assay [1] is A549.
Assay [2] deals with SW-620.
For assay [3], the system named is CCRF-CEM.
The subject of assay [4] is SF-539.
Assay [5] deals with SNB-19.
Assay [6] relates to HOP-92.
In assay [7] the test system is MDA-MB-231.
In assay [8] the test system is EKVX.
Assay [9] relates to Malme-3M.
Assay [10] concerns MDA-N.
The subject of assay [11] is SK-MEL-5.
Assay [12] has as its system LOX IMVI.
Assay [13] relates to OVCAR-5.
The test system of assay [14] is K562.
Assay [15] relates to U-251.
For assay [16], the system named is RPMI-8226.
Assay [17] has as its system MDA-MB-435.
The test system of assay [18] is NCI-H522.
For assay [19], the system named is PC-3.
Assay [20] relates to HCC 2998.

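Growth conditions: 96-well plates. Treatment: test compound, 48 hours, 5 concentrations. Analysis: linear interpolation between bracketing concentrations; unreached endpoints set to highest concentration. The concentration for 50% growth inhibition is given as GI50.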 Active and inactive are the calls of the source. Cut-off read from the data, not from the text of the source: active = GI50 up to about 1.1 µM and inactive = higher.

Take `COc1cccc(NC(=O)CC(=O)NN)c1`: the GI50 in assay [1], in [2], in assay [3], in assay [4], in assay [5] and in assay [6] was > 100 µM (inactive) in each case. The GI50 in assay [7], in assay [8], in assay [9], in assay [10], in assay [11] and in assay [12] was > 100 µM (inactive) each time. For the same compound, the GI50 in [13], in [14], in [15], in assay [16], in [17] and in [18] was > 100 µM (inactive) in each case. For the same compound, the GI50 in assay [19] was > 100 µM (inactive).
Turning to `O=C(O)c1ccc(/C=N/N=C2c3ccccc3-c3ccccc32)cc1`, the GI50 in assay [1] was 74 µM (inactive); in [2], 36.1 µM (inactive); in assay [3], 44.1 µM (inactive); in [4], 31 µM (inactive); in assay [5], 48 µM (inactive); in assay [6] it was 40.6 µM (inactive). The GI50 in assay [7] was > 100 µM (inactive); in assay [8] it was > 100 µM (inactive); in assay [9], 29 µM (inactive); in assay [10], 50.9 µM (inactive); in [11], 26.5 µM (inactive); in [12], > 100 µM (inactive). Further, the GI50 in assay [13] is 50.2 µM (inactive); in [14], 55.8 µM (inactive); in assay [15], 37.4 µM (inactive); in assay [16], 63.7 µM (inactive); in assay [17], 73.5 µM (inactive); in assay [18], 60.7 µM (inactive). For the same compound, in assay [19], the GI50 is 35 µM (inactive).
Regarding `C=CC(C)(C)n1cc(C2=C(O)C(=O)C(c3cn(C(C)(C)C=C)c4ccccc34)=C(OC(C)=O)C2=O)c2ccccc21`, the GI50 in assay [1] is 0.426 µM (active); in [2] it was 1.53 µM (inactive); in [3] it was 0.435 µM (active); in assay [20], 0.908 µM (active); in assay [5], 1.04 µM (active); in assay [6], 0.598 µM (active). Moreover, the GI50 in assay [7] is 1.3 µM (inactive); in assay [8], 1.11 µM (active); in assay [9] it was 1.46 µM (inactive); in assay [10], 0.662 µM (active); in [11], 0.64 µM (active); in assay [12] it was 0.508 µM (active). The GI50 in assay [13] was 1.66 µM (inactive); in assay [14] it was 0.424 µM (active); in assay [15] it was 0.426 µM (active); in assay [16] it was 0.984 µM (active); in assay [17], 0.513 µM (active); in [18], 1.55 µM (inactive). In assay [19], the GI50 is 0.75 µM (active).
On to `N#Cc1nc(-c2ccccn2)oc1N`, for which the GI50 in [2], in assay [3], in assay [20], in [5], in assay [6] and in assay [7] was > 100 µM (inactive) each time. Further, the GI50 in [8], in [9], in assay [10], in assay [11], in [12] and in assay [13] was > 100 µM (inactive) in each case. The GI50 in assay [14], in assay [15], in assay [16], in [17], in assay [18] and in [19] was > 100 µM (inactive) in each case.
On to `Nc1ccc2c(c1)S(=O)(=O)c1cc(N)ccc1-2`, for which the GI50 in assay [1], in assay [2], in assay [20], in assay [4], in assay [5] and in [6] was > 100 µM (inactive) in each case. The GI50 in [7], in [8], in assay [10], in assay [11], in assay [12] and in [13] was > 100 µM (inactive) in each case. The GI50 in assay [14], in [15], in [17], in assay [18] and in assay [19] was > 100 µM (inactive) in each case.
As to `CN(C)CCNc1ccccn1`, the GI50 in assay [1], in [2], in [20], in assay [5], in assay [6] and in assay [7] was > 100 µM (inactive) in each case. Besides, the GI50 in assay [8], in assay [9], in assay [10], in assay [11], in assay [12] and in assay [13] was > 100 µM (inactive) in each case. Also, the GI50 in [14], in assay [15], in assay [17], in assay [18] and in [19] was > 100 µM (inactive) throughout.
In the case of `N=C(N)N/N=C/c1c(-c2ccc(N)cc2)nc2sccn12`, the GI50 was 21.2 µM (inactive) in [1]; 22.8 µM (inactive) in assay [2]; 26.8 µM (inactive) in assay [3]; 26.9 µM (inactive) in [4]; 23.2 µM (inactive) in [5]; > 100 µM (inactive) in assay [6]. Besides, the GI50 in assay [7] is 21 µM (inactive); in [8], 24.7 µM (inactive); in assay [9], 61 µM (inactive); in assay [10], 24.5 µM (inactive); in assay [11], > 100 µM (inactive); in assay [12], 32.9 µM (inactive). The GI50 in assay [13] was 21.4 µM (inactive); in assay [14], 26.1 µM (inactive); in assay [15], 25.4 µM (inactive); in [16], 30.8 µM (inactive); in assay [17], 26.5 µM (inactive); in [18], 26.5 µM (inactive). Further, the GI50 in assay [19] was 22.5 µM (inactive).
On to `NC1CC2NC3CCCCC3NC2CC1N` (stereo not drawn), for which the GI50 in assay [1] is 58.3 µM (inactive); in assay [2], 24.1 µM (inactive); in assay [3], 22.5 µM (inactive); in assay [20], 62.5 µM (inactive); in [4] it was 80.4 µM (inactive); in assay [5] it was 36.2 µM (inactive). Further, the GI50 in [7] was 61.7 µM (inactive); in [8], 25.4 µM (inactive); in assay [9], 46.6 µM (inactive); in assay [10], 43.8 µM (inactive); in [11], 27.7 µM (inactive); in assay [12], 31.6 µM (inactive). The GI50 in assay [13] was 42.7 µM (inactive); in [14] it was 31.8 µM (inactive); in assay [15], 28 µM (inactive); in assay [16], 37.5 µM (inactive); in [17], 36.1 µM (inactive); in [18], 12.6 µM (inactive). Besides, the GI50 in assay [19] is 50.9 µM (inactive).
As to `[O-][n+]1onc2c1-c1nonc1CC2`, the GI50 is 72.1 µM (inactive) in assay [1]; 45.1 µM (inactive) in assay [2]; 27.7 µM (inactive) in assay [3]; 77.1 µM (inactive) in [20]; 25.3 µM (inactive) in assay [4]; > 100 µM (inactive) in [5]. The GI50 in [7] is 27 µM (inactive); in assay [8] it was 25.9 µM (inactive); in assay [9], 11.9 µM (inactive); in assay [10], 46.2 µM (inactive); in [11], 27 µM (inactive); in assay [12], 22.4 µM (inactive). In addition, the GI50 is 50.8 µM (inactive) in assay [13]; 56 µM (inactive) in assay [14]; 31.9 µM (inactive) in [15]; > 100 µM (inactive) in [16]; 39.1 µM (inactive) in assay [17]; 31 µM (inactive) in assay [18]. In addition, in assay [19], the GI50 was 26.5 µM (inactive).
As for `CO[C@@H]1C=C[C@@]23c4cc5c(cc4C(O)N(CC2O)C3C1)OCO5` (stereo partly drawn), the GI50 in assay [1] was 3.35 µM (inactive); in assay [2], 4.33 µM (inactive); in assay [3], 1.79 µM (inactive); in [4] it was 9.23 µM (inactive); in assay [5], 3.3 µM (inactive); in assay [6] it was 3.09 µM (inactive). Further, the GI50 is 3.87 µM (inactive) in assay [7]; 3.86 µM (inactive) in assay [8]; 6.97 µM (inactive) in assay [9]; 3.2 µM (inactive) in [10]; 2.01 µM (inactive) in assay [11]; 3.52 µM (inactive) in assay [12]. The GI50 in assay [13] is 4.91 µM (inactive); in assay [14], 3.48 µM (inactive); in assay [15], 3.61 µM (inactive); in assay [16] it was 4.18 µM (inactive); in [17], 3.06 µM (inactive); in assay [18], 3.66 µM (inactive). The GI50 in assay [19] is 3.56 µM (inactive).
For `C=C(C)[C@H]1C=C[C@@H](OC(=O)c2cccnc2)[C@@]23CO[C@@](C)([C@H](OC(=O)c4cccnc4)[C@@]4(OC(C)=O)C[C@H](C)[C@H](OCCC)[C@@H]4[C@H]2OC(C)=O)[C@H]13`, the GI50 was > 15 µM (inactive) in [2]; 2.84 µM (inactive) in assay [3]; > 15 µM (inactive) in [20]; > 15 µM (inactive) in assay [4]; > 15 µM (inactive) in assay [5]; > 15 µM (inactive) in [6]. Also, the GI50 in [7] is > 15 µM (inactive); in assay [8], > 15 µM (inactive); in assay [10] it was 10.7 µM (inactive); in assay [11], > 15 µM (inactive); in [12], > 15 µM (inactive); in assay [13], > 15 µM (inactive). The GI50 in [14] was 7.73 µM (inactive); in assay [15], > 15 µM (inactive); in assay [16], 9.95 µM (inactive); in [17], 9.68 µM (inactive); in [18], > 15 µM (inactive); in assay [19], 7.74 µM (inactive).

Source of the values: ChEMBL document CHEMBL1201862, “PubChem BioAssay data set” (2004).
